Test results as given in ChEMBL document CHEMBL1134316, “Identification of dipeptidyl nitriles as potent and selective inhibitors of cathepsin B through structure-based drug design” (J Med Chem, 2001).

What follows are molecules tested against Procathepsin L (Homo sapiens, UniProt P07711) (assay: Inhibitory activity against recombinant human cathepsin L (cat L) expressed in baculovirus).
Sequence of Procathepsin L (P07711 whole entry): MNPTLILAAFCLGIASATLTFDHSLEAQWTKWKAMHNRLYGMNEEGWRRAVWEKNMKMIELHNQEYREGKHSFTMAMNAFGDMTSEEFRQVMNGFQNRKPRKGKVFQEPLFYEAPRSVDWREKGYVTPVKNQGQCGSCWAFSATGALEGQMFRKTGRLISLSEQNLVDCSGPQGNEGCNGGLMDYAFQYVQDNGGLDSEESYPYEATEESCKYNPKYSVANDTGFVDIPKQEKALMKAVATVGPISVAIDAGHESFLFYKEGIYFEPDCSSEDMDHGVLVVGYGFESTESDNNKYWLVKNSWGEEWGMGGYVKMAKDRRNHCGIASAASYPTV

IC50 [nM]	Compound
31	N#CCNC(=O)[C@H](Cc1ccccc1)NC(=O)C(c1ccccc1)c1ccccc1
170	N#CCNC(=O)[C@H](Cc1ccccc1)NC(=O)Cc1ccccc1

Each molecule was assayed against Cathepsin S (Homo sapiens, UniProt P25774) (assay: Inhibitory activity against recombinant human cathepsin S (cat S) expressed in baculovirus).
Sequence of Cathepsin S (P25774 whole entry): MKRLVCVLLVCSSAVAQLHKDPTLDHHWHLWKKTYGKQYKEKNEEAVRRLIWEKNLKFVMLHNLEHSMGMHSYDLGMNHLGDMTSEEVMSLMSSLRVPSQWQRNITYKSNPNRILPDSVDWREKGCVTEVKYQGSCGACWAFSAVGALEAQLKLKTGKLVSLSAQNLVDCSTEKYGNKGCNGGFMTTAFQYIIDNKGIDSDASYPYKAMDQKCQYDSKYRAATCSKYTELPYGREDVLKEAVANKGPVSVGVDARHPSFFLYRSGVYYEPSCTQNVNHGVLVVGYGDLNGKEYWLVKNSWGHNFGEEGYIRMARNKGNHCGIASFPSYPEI

IC50 [nM]	Compound
48	N#CCNC(=O)[C@H](Cc1ccccc1)NC(=O)C(c1ccccc1)c1ccccc1
226	N#CCNC(=O)[C@H](Cc1ccccc1)NC(=O)Cc1ccccc1

Each molecule was assayed against Cathepsin B (Homo sapiens, UniProt P07858) (assay: Inhibitory activity against recombinant human cathepsin B (cat B) expressed in baculovirus.).

IC50 [nM]	Compound
110	Cc1cccc(C[C@H](NC(=O)c2ccc(F)cc2F)C(=O)N[C@H](C#N)CCCc2cccc(C(=O)O)c2)c1
35.7	CCCCC(=O)N[C@@H](Cc1cccc(C)c1)C(=O)N[C@H](C#N)COCc1cccc(C(=O)O)c1
2	Cc1cccc(C[C@H](NC(=O)c2ccc(Cl)cc2F)C(=O)N[C@H](C#N)COCc2cccc(C(=O)O)c2)c1
9.4	Cc1cccc(C[C@H](NC(=O)c2ccccc2)C(=O)N[C@H](C#N)COCc2cccc(C(=O)O)c2)c1
30.7	Cc1cccc(C[C@H](NC(=O)C(c2ccccc2)c2ccccc2)C(=O)N[C@H](C#N)COCc2ccc(C(=O)O)cc2)c1
29	Cc1cccc(C[C@H](NC(=O)C(c2ccccc2)c2ccccc2)C(=O)N[C@H](C#N)COCc2cccc(CO)c2)c1
42	Cc1cccc(C[C@H](NC(=O)c2ccc(F)cc2F)C(=O)N[C@H](C#N)COCc2ccccc2)c1
16.9	Cc1cccc(C[C@H](NC(=O)c2ccc(Cl)cc2F)C(=O)N[C@H](C#N)COCc2ccccc2)c1
47	COC(=O)c1cccc(COC[C@@H](C#N)NC(=O)[C@H](Cc2cccc(C)c2)NC(=O)C(c2ccccc2)c2ccccc2)c1
72	Cc1cccc(C[C@H](NC(=O)c2ccc(Cl)cc2F)C(=O)NCC#N)c1

Continued, molecule first:

Compound	IC50 [nM]
N#CCNC(=O)[C@H](Cc1ccccc1)NC(=O)C(c1ccccc1)c1ccccc1	496
Cc1cccc(C[C@H](NC(=O)c2ccc(Cl)cc2)C(=O)NCC#N)c1	308
Cc1cc(C)cc(C[C@H](NC(=O)C(c2ccccc2)c2ccccc2)C(=O)NCC#N)c1	11.9
CCc1cccc(C[C@H](NC(=O)C(c2ccccc2)c2ccccc2)C(=O)NCC#N)c1	136
Cc1cccc(C[C@H](NC(=O)C(c2ccccc2)c2ccccc2)C(=O)N[C@H](C#N)CCOc2cccc(C(=O)O)c2)c1	138
Cc1cccc(C[C@H](NC(=O)c2ccc(Cl)c(Cl)c2)C(=O)NCC#N)c1	31.3
Cc1cc(CN)cc(C[C@H](NC(=O)C(c2ccccc2)c2ccccc2)C(=O)NCC#N)c1	358
Cc1cccc(C[C@H](NC(=O)c2ccc(F)cc2F)C(=O)NCC#N)c1	591
N#CCNC(=O)[C@H](Cc1cccc(Cl)c1)NC(=O)C(c1ccccc1)c1ccccc1	130
CCCCC(=O)N[C@@H](Cc1cccc(C)c1)C(=O)NCC#N	3000
N#CCNC(=O)[C@H](Cc1cccc(C(=N)N)c1)NC(=O)C(c1ccccc1)c1ccccc1	> 1000
Cc1cccc(C[C@H](NC(=O)C(c2ccccc2)c2ccccc2)C(=O)N[C@H](C#N)COCc2ccccc2)c1	10.2
Cc1cccc(C[C@H](NC(=O)c2ccccc2)C(=O)NCC#N)c1	1900
Cc1cncc(C[C@H](NC(=O)C(c2ccccc2)c2ccccc2)C(=O)NCC#N)c1	652
N#CCNC(=O)[C@H](Cc1ccccc1)NC(=O)OCc1ccccc1	62000
N#CCNC(=O)[C@H](Cc1cccc(I)c1)NC(=O)C(c1ccccc1)c1ccccc1	121
Cc1cccc(C[C@H](NC(=O)C(c2ccccc2)c2ccccc2)C(=O)N[C@H](C#N)CCCc2cccc(C(=O)O)c2)c1	18
N#CCNC(=O)[C@H](Cc1ccc(I)cc1)NC(=O)C(c1ccccc1)c1ccccc1	> 1000
N#CCNC(=O)[C@H](Cc1ccccc1)NC(=O)Cc1ccccc1	34000
Cc1cccc(C[C@H](NC(=O)C(c2ccccc2)c2ccccc2)C(=O)N[C@H](C#N)CC#Cc2cccc(C(=O)O)c2)c1	5.6
